Laboratory results taken from ChEMBL document CHEMBL1201862, “PubChem BioAssay data set” (2004).
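Five compound concentrations were applied to cells in 96-well plates for 48 hours; endpoints were derived by simple linear interpolation of the resulting dose-response curve. At the GI50, growth is halved.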 Activity calls are given as the source filed them. No stated cut-off is given here; in the data, active = GI50 up to about 1.1 µM and inactive = higher.

What was measured:
Assay in all cases: growth of human tumour cells (NCI), 48 h
SNB-78 = system: SNB-78
DMS-273 = system: DMS-273
RXF 631 = system: RXF 631
DMS-114 = system: DMS-114
M19-MEL = system: M19-MEL
HOP-18 = system: HOP-18
KM-20L2 = system: KM-20L2
DLD-1 = system: DLD-1
XF498 = system: XF498

Measured: GI50

CCN(CC)C(=S)N/N=C(\C)c1ccccc1O
inactive: SNB-78 > 100 µM | DMS-273 12.9 µM | RXF 631 35.2 µM | DMS-114 11.9 µM | M19-MEL 39.9 µM | HOP-18 26.2 µM | KM-20L2 21.4 µM | DLD-1 17.8 µM

OCCN(CCO)c1cccc(N(CCO)CCO)c1
inactive: SNB-78 > 100 µM | DMS-273 > 100 µM | XF498 > 100 µM | RXF 631 > 100 µM | DMS-114 > 100 µM | M19-MEL > 100 µM | KM-20L2 38.5 µM | DLD-1 > 100 µM

O=C(CC1C(=O)Nc2ccccc2[S+]1[O-])Nc1ccc(Cl)cc1 (stereo unspecified)
inactive: SNB-78 53.7 µM | DMS-273 > 100 µM | KM-20L2 > 100 µM | DLD-1 > 100 µM

Cc1ccc2nc3c(C)cc(=O)cc-3sc2c1
inactive: SNB-78 32.5 µM | DMS-273 27.9 µM | RXF 631 31.2 µM | DMS-114 17.5 µM | M19-MEL 15.9 µM | HOP-18 56.6 µM | KM-20L2 43.5 µM | DLD-1 30.3 µM

COC(=O)NC(=O)c1cn(C2OC(CO)C(O)C2O)c(=O)[nH]c1=O (stereo unspecified)
inactive: SNB-78 > 100 µM | M19-MEL > 100 µM | KM-20L2 > 100 µM | DLD-1 > 100 µM

NC(=O)c1ncn(C2OC(CO)C(O)C2O)c1O (stereo unspecified)
inactive: SNB-78 > 100 µM | XF498 > 100 µM | RXF 631 > 100 µM | DMS-114 > 100 µM | M19-MEL > 100 µM | HOP-18 53.7 µM | KM-20L2 34.8 µM

O=C(N/C(=C\c1ccc([N+](=O)[O-])cc1)c1nc2c(O)nc(S)nc2[nH]1)c1ccccc1
inactive: SNB-78 > 100 µM | XF498 > 100 µM | DMS-114 77.3 µM | M19-MEL > 100 µM | KM-20L2 > 100 µM | DLD-1 53.7 µM

O=c1c2ccccc2c(=O)n2n1-c1cccc(c1)CSSCc1cccc-2c1
inactive: SNB-78 62.1 µM | DMS-273 > 10 µM | XF498 62.2 µM | RXF 631 > 10 µM | DMS-114 > 10 µM | M19-MEL > 10 µM | HOP-18 > 10 µM | KM-20L2 > 100 µM | DLD-1 > 10 µM

Nc1ccc(C(=O)N/C(=C\C=C\c2ccco2)c2nc3c4c(ccc3[nH]2)C(=O)c2ccccc2C4=O)cc1
inactive: SNB-78 64.6 µM | DMS-273 29.5 µM | XF498 > 100 µM | RXF 631 32.8 µM | DMS-114 18.5 µM | M19-MEL 79.6 µM | HOP-18 11.4 µM | KM-20L2 55.6 µM | DLD-1 13.3 µM

CN(C)CCNC(=O)c1c2ccccc2cc2ccccc12
inactive: SNB-78 55.3 µM | DMS-273 33 µM | XF498 19.5 µM | DMS-114 53.1 µM | M19-MEL 33.2 µM | HOP-18 > 100 µM | KM-20L2 37.7 µM | DLD-1 41.8 µM

c1ccc(C2=NN(c3ccccc3)C3(S2)SC(c2ccccc2)(c2ccccc2)c2ccccc23)cc1 (stereo unspecified)
inactive: SNB-78 > 100 µM | DMS-273 > 100 µM | XF498 > 100 µM | DMS-114 > 100 µM | M19-MEL > 100 µM | KM-20L2 > 100 µM | DLD-1 > 100 µM

CC(C)c1cccc(C(C)C)c1NC(=O)C(=O)Cc1nc2ccc([N+](=O)[O-])cc2nc1O
inactive: DMS-273 44.4 µM | RXF 631 40.8 µM | DMS-114 10.5 µM | M19-MEL 80.9 µM | HOP-18 > 100 µM | KM-20L2 20.1 µM | DLD-1 > 100 µM

Cn1cnc2[nH]c(=O)[nH]c(=S)c21
inactive: SNB-78 > 100 µM | DMS-273 > 100 µM | XF498 > 100 µM | RXF 631 > 100 µM | DMS-114 > 100 µM | M19-MEL > 100 µM | HOP-18 > 100 µM | KM-20L2 > 100 µM | DLD-1 > 100 µM

NNC(=O)C(=O)N/N=C(\CCC(=O)Nc1ccc(Cl)cc1)Cc1nc2ccccc2s1
inactive: SNB-78 70.5 µM | DMS-273 15.5 µM | DMS-114 19.1 µM | M19-MEL 17.4 µM | HOP-18 5.33 µM | KM-20L2 45.5 µM

O=C1CCCC2=C(N1)C(=O)C=CC2=O
inactive: SNB-78 > 100 µM | DMS-273 > 100 µM | XF498 > 100 µM | RXF 631 > 100 µM | DMS-114 > 41.7 µM | M19-MEL > 100 µM | HOP-18 > 100 µM | KM-20L2 > 100 µM | DLD-1 > 53.2 µM

O=C1C(c2ccccc2)=C(c2ccccc2)C(c2ccc(Cc3ccc(C4=C(c5ccccc5)C(=O)C(c5ccccc5)=C4c4ccccc4)cc3)cc2)=C1c1ccccc1
inactive: SNB-78 > 100 µM | DMS-273 > 100 µM | XF498 > 100 µM | DMS-114 > 100 µM | M19-MEL > 100 µM | HOP-18 > 100 µM | KM-20L2 > 100 µM | DLD-1 > 100 µM

CCCCCCCCCCCCOC(=N)N1CCOCC1
inactive: SNB-78 6.59 µM | DMS-273 9.55 µM | XF498 13.3 µM | RXF 631 8.18 µM | DMS-114 6.7 µM | M19-MEL 5.22 µM | HOP-18 2 µM | KM-20L2 3.43 µM | DLD-1 3.3 µM
